# Tested on: P. aeruginosa strains over-expressing efflux pumps (PA01, PT629, PA01-ERY^R, PA0-7H, CMZ091, FB1)
# Assay: Spotting of logarithmic dilutions on MH agar with antibiotic and compound 3
# Format: cell-based, Pseudomonas aeruginosa
# Method: In a second experiment, 5 μL of logarithmic dilutions of an overnight culture of the 6 strains described in Table 1 were spotted on the MH agar plates prepared as above. An additional assay was also performed with these 6 strains using chloramphenicol as antibiotic instead of doxycycline.
# Fig 4 Compound 3 activity against P. aeruginosa strains over-expressing efflux pumps. The ability of bacteria to grow under various conditions was assessed in solid media containing, in a: 2 mg/L doxycycline (left) or a combination of 2 mg/L doxycycline and 10 μM compound 3 (right) and in b: 4 mg/L chloramphenicol (left) or a combination of 4 mg/L chloramphenicol and 10 μM compound 3 (right). 5 μL of logarithmic dilutions of an overnight culture of each strain were spotted on the plates. From top to bottom, PA01, PT629, PA01-ERY^R, PA0-7H, CMZ091 and FB1.
smiles,measurement,setting,value
CC(C)=CCCC(C)=CCCC(C)=CCNCCCNCCCCNCCCN [Compound 3],dilution of overnight culture at which growth was observed,"2 μg/mL doxycycline + 10 μM compound 3, PA01 or strains overproducing MexCD or MexEF",10^−2
same,dilution above which no growth was observed,"2 μg/mL doxycycline + 10 μM compound 3, all cases",10^−5
same,dilution of overnight culture at which growth was observed,"2 μg/mL doxycycline + 10 μM compound 3, cells overproducing MexAB or MexXY",10^−4
same,growth on agar,"2 μg/mL doxycycline + 10 μM compound 3, ΔmexB strain",did not grow at any of the dilutions
same,effect on growth with chloramphenicol,"4 mg/L chloramphenicol + 10 μM compound 3, PT629 and PA0-7H",slight effect

# — article PMC4859512, “Polyamino-Isoprenic Derivatives Block Intrinsic Resistance of P. aeruginosa to Doxycycline and Chloramphenicol In Vitro” (PLoS ONE, 2016)
